Assay results reported in US9896441B2 (Lycera Corporation, priority 2014, dated 2018).

target: T1, RORγ-LBD (Homo sapiens, UniProt P51449); assay: RORγ-Ligand Binding Domain (LBD) TR-FRET Assay; type: biochemical; settings: RORγ-LBD TR-FRET;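 as to TR-FRET Assay Max Response: 665/615 nm signal ratio set to 100 without ursolic acid or test compound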
T1 construct: made in house; host or cells: SF9 cells (baculovirus); used as diluted lysate
T1 sequence (P51449 269-508 limits assumed): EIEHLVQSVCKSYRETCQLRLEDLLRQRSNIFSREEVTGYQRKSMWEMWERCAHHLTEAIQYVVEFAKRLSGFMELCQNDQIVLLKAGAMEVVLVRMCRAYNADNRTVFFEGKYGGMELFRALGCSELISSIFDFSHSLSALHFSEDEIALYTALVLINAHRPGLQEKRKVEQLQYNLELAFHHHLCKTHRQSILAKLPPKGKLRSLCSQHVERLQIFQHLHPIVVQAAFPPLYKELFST
Protocol: Assay procedures and results are described below.
HIS-tagged RORγ-LBD protein was expressed in SF9 cells using a baculovirus expression system. The lysate was diluted in assay buffer (50 mM Tris pH 7.0, 50 mM KCl, 1 mM EDTA, 0.1 mM DTT, 0.01% BSA) to obtain RORγ-LBD final concentration of ˜3 nM in a 384-well assay plate (need to titrate for each batch of protein).
A stock of biotinylated-LXXLL peptide from coactivator SRC1 (Biotin-[…]) was prepared in assay buffer and added to each well (200 nM final concentration). […] RORγ antagonist ursolic acid was also included at a final concentration of 2 μM. Compounds were diluted in DMSO and further diluted in assay buffer with a final DMSO concentration at 1%.

SMILES | EC50 [nM]
CCOC(=O)C1Cc2ccc(OCc3c(F)cccc3Cl)cc2N(S(=O)(=O)c2cn(CC)nc2Cl)C1 (stereo not drawn) [Example 9E, ethyl 1-((3-chloro-1-ethyl-1H-pyrazol-4-yl)sulfonyl)-7-((2-chloro-6-fluorobenzyl)oxy)-1,2,3,4-tetrahydroquinoline-3-carboxylate] | < 500
COc1cc(S(=O)(=O)N2CCCc3ccc(O[C@@H]4CCc5ccccc54)cc32)ccc1F [Example 25B, (R)-7-((2,3-dihydro-1H-inden-1-yl)oxy)-1-((4-fluoro-3-methoxyphenyl)sulfonyl)-1,2,3,4-tetrahydroquinoline] | < 500
O=S(=O)(c1cccc(C(F)(F)F)c1)N1CCCc2cc(Br)c(OCc3c(F)cccc3Cl)cc21 [Example 28F] | < 500
O=S(=O)(c1cccc(C(F)(F)F)c1)N1CCCc2cc(OCCc3ccccc3)ccc21 [Example 25N, 6-phenethoxy-1-((3-(trifluoromethyl)phenyl)sulfonyl)-1,2,3,4-tetrahydroquinoline] | < 500
COc1cc(S(=O)(=O)N2CCCc3ccc(O[C@H]4CCc5ccccc54)cc32)ccc1F [Example 25A, (S)-7-((2,3-dihydro-1H-inden-1-yl)oxy)-1-((4-fluoro-3-methoxyphenyl)sulfonyl)-1,2,3,4-tetrahydroquinoline] | < 500
O=S(=O)(c1cccc(C(F)(F)F)c1)N1CCCc2cc(OCC3CCCCC3)ccc21 [Example 25M, 6-(cyclohexylmethoxy)-1-((3-(trifluoromethyl)phenyl)sulfonyl)-1,2,3,4-tetrahydroquinoline] | < 500
COc1cc(S(=O)(=O)N2CCCc3ccc(OCc4c(F)cccc4C4CC4)cc32)ccc1F [Example 25T, 7-((2-cyclopropyl-6-fluorobenzyl)oxy)-1-((4-fluoro-3-methoxyphenyl)sulfonyl)-1,2,3,4-tetrahydroquinoline] | < 500
O=S(=O)(c1cccc(C(F)(F)F)c1)N1CCCc2cc(O[C@@H]3CCc4ccccc43)ccc21 [Example 25U, (R)-6-((2,3-dihydro-1H-inden-1-yl)oxy)-1-((3-(trifluoromethyl)-phenyl)sulfonyl)-1,2,3,4-tetrahydroquinoline] | > 10000
O=S(=O)(c1cccc(C(F)(F)F)c1)N1CCCc2cc(O[C@H]3CCc4ccccc43)ccc21 [Example 25V, (S)-6-((2,3-dihydro-1H-inden-1-yl)oxy)-1-((3-(trifluoromethyl)-phenyl)sulfonyl)-1,2,3,4-tetrahydroquinoline] | 500 to 5000

Results, then the molecule that gave them:

EC50 [nM] | SMILES
500 to 5000 | O=C(O)CC[C@H]1CN(S(=O)(=O)c2cc(C(F)(F)F)cnc2OCCO)c2cc(/C=C3\CCCOC3)ccc2O1 [Example 95X, (S,E)-3-(6-((dihydro-2H-pyran-3(4H)-ylidene)methyl)-4-((2-(2-hydroxyethoxy)-5-(trifluoromethyl)pyridin-3-yl)sulfonyl)-3,4-dihydro-2H-benzo[b][1,4]oxazin-2-yl)propanoic acid]
500 to 5000 | O=C(O)CC[C@H]1CN(S(=O)(=O)c2cc(C(F)(F)F)cnc2OCCO)c2cc(C=C3CCC(O)CC3)ccc2O1 (stereo partly drawn) [Example 95V, 3-((2S)-6-((4-hydroxycyclohexylidene)-methyl)-4-((2-(2-hydroxyethoxy)-5-(trifluoromethyl)pyridin-3-yl)sulfonyl)-3,4-dihydro-2H-benzo[b][1,4]oxazin-2-yl)propanoic acid]
> 10000 | CS(=O)(=O)c1cccc(/C=C/c2ccc3c(c2)N(S(=O)(=O)c2cccc(C(F)(F)F)c2)C[C@H](CCC(=O)O)O3)c1 [Example 89BV, (S,E)-3-(6-(3-(methylsulfonyl)-styryl)-4((3-(trifluoromethyl)-phenyl)sulfonyl)-3,4-dihydro-2H-benzo[b][1,4]oxazin-2-yl)propanoic acid]
> 10000 | CCCn1ccc(/C=C/c2ccc3c(c2)N(S(=O)(=O)c2cccc(C(F)(F)F)c2)C[C@H](CCC(=O)O)O3)n1 [Example 89BZ, (S,E)-3-(6-(2-(1-propyl-1H-pyrazol-3-yl)vinyl)-4-((3-(trifluoromethyl)phenyl)sulfonyl)-3,4-dihydro-2H-benzo[b][1,4]oxazin-2-yl)propanoic acid]
< 500 | COC(=O)CC[C@H]1CN(S(=O)(=O)c2cccc(C(F)(F)F)c2)c2cc(/C=C/c3c(C)noc3C)ccc2O1 [Example 89BS, (S,E)-methyl 3-(6-(2-(3,5-dimethylisoxazol-4-yl)vinyl)-4-((3-(trifluoromethyl)phenyl)-sulfonyl)-3,4-dihydro-2H-benzo[b][1,4]-oxazin-2-yl)propanoate]

same assay, conditions: RORγ-LBD TR-FRET assay

SMILES | EC50 [nM]
COc1cc(S(=O)(=O)N2c3cc(OCc4c(F)cccc4Cl)ccc3C[C@@H](CO)[C@H]2C)ccc1F [Example 151, ((2R,3R)-7-((2-Chloro-6-fluorobenzyl)oxy)-1-((4-fluoro-3-methoxyphenyl)sulfonyl)-2-methyl-1,2,3,4-tetrahydroquinolin-3-yl)methanol] | < 500
C/C(=C\c1ccc2c(c1)C[C@@H](C(=O)O)[C@@H](C)N2S(=O)(=O)c1cccc(C(F)(F)F)c1)c1c(F)cccc1Cl [Example 149, (2R,3R)-6-((E)-2-(2-Chloro-6-fluorophenyl)prop-1-en-1-yl)-2-methyl-1-((3-(trifluoromethyl)phenyl)sulfonyl)-1,2,3,4-tetrahydroquinoline-3-carboxylic acid] | > 10000

The next lines start with the values.

EC50 [nM] | SMILES
< 500 | COC(=O)C(C)(C)C[C@@H]1Cc2ccc(/C=C(\C)c3c(F)cccc3Cl)cc2N(S(=O)(=O)c2ccc(F)c(OC)c2)C1 [Example 154B, methyl (S,E)-3-(7-(2-(2-chloro-6-fluorophenyl)prop-1-en-1-yl)-1-((4-fluoro-3-methoxyphenyl)sulfonyl)-1,2,3,4-tetrahydroquinolin-3-yl)-2,2-dimethylpropanoate]
< 500 | CCOC(=O)C(C)(C)CC1C[C@H](S(=O)(=O)c2cccc(C(F)(F)F)c2)c2cc(/C=C(\C)c3c(F)cccc3Cl)ccc2O1 (stereo in doubt) [Example 186L, ethyl 3-((2S,4S)-6-((E)-2-(2-chloro-6-fluorophenyl)prop-1-en-1-yl)-4-((3-(trifluoromethyl)phenyl)-sulfonyl)chroman-2-yl)-2,2-dimethylpropanoate]

same assay, conditions: RORγ-LBD TR-FRET assay, maximum response

SMILES | TR-FRET Assay Max Response
COC(=O)C(C)(C)C[C@@H]1Cc2ccc(/C=C(\C)c3c(F)cccc3Cl)cc2N(S(=O)(=O)c2ccc(F)c(OC)c2)C1 [Example 154B, methyl (S,E)-3-(7-(2-(2-chloro-6-fluorophenyl)prop-1-en-1-yl)-1-((4-fluoro-3-methoxyphenyl)sulfonyl)-1,2,3,4-tetrahydroquinolin-3-yl)-2,2-dimethylpropanoate] | ** (a value in the range of greater than 90 to 150)
COc1cc(S(=O)(=O)N2c3cc(OCc4c(F)cccc4Cl)ccc3C[C@@H](CO)[C@H]2C)ccc1F [Example 151, ((2R,3R)-7-((2-Chloro-6-fluorobenzyl)oxy)-1-((4-fluoro-3-methoxyphenyl)sulfonyl)-2-methyl-1,2,3,4-tetrahydroquinolin-3-yl)methanol] | ** (a value in the range of greater than 90 to 150)
CCOC(=O)C(C)(C)CC1C[C@H](S(=O)(=O)c2cccc(C(F)(F)F)c2)c2cc(/C=C(\C)c3c(F)cccc3Cl)ccc2O1 (stereo in doubt) [Example 186L, ethyl 3-((2S,4S)-6-((E)-2-(2-chloro-6-fluorophenyl)prop-1-en-1-yl)-4-((3-(trifluoromethyl)phenyl)-sulfonyl)chroman-2-yl)-2,2-dimethylpropanoate] | *** (a value in the range of greater than 150 to 200)

same assay, conditions: with 2 μM ursolic acid (RORγ antagonist); highest test concentration 10 μM

EC50 [nM] | SMILES
< 500 | CCOC(=O)C1Cc2ccc(OCc3c(F)cccc3Cl)cc2N(S(=O)(=O)c2cn(CC)nc2Cl)C1 (stereo not drawn) [drawing 1599]
< 500 | C/C(=C\c1ccc2c(c1)N(S(=O)(=O)c1cc(C3CC3)cnc1OCCO)C[C@H](CCC(=O)O)O2)c1c(F)cccc1Cl [Example 86BC, (S,E)-3-(6-(2-(2-chloro-6-fluorophenyl)prop-1-en-1-yl)-4-((5-cyclopropyl-2-(2-hydroxyethoxy)pyridin-3-yl)sulfonyl)-3,4-dihydro-2H-benzo[b][1,4]oxazin-2-yl)propanoic acid]
> 10000 | CC(C)(C)c1ccc(COc2ccc3c(c2)N(S(=O)(=O)c2cccc(C(F)(F)F)c2)CC(C(=O)O)C3)cc1 (stereo not drawn)
< 500 | O=C(O)C1Cc2ccc(OCc3c(Cl)cccc3Cl)cc2N(S(=O)(=O)c2cccc(C(F)(F)F)c2)C1 (stereo not drawn)
5000 to 10000 | O=C(O)C1Cc2ccc(OCc3ccc(C(F)(F)F)c(F)c3)cc2N(S(=O)(=O)c2cccc(C(F)(F)F)c2)C1 (stereo not drawn)
< 500 | CCn1cc(S(=O)(=O)N2CC(C(=O)O)Cc3ccc(/C=C(\C)c4c(F)cccc4Cl)cc32)c(Cl)n1 (stereo not drawn)
